Measured values taken from patent US20070232492A1, “Herbicidal Composition” (Ishihara Sangyo Kaisha, LTD., priority 2004, published 2007).
Like-named read-outs stand apart in the source and are kept apart here.

Assays:
[1] = system: barnyardgrass (Echinochloa oryzicola vasing); assay: Growth inhibition of barnyardgrass in paddy soil pots, application under submerged condition, visual rating (observed value) and Colby expected value; format: in vivo; settings: for inhibition at 100 g/ha / inhibition at 200 g/ha / inhibition at 150 g/ha / inhibition at 300 g/ha: Echinochloa oryzicola, soil, 504 h; for inhibition at 100 g/ha: 1 g/a; for inhibition at 100 g/ha / inhibition at 200 g/ha: read-out: Growth inhibition rate (%) Observed; for inhibition at 200 g/ha: 2 g/a; for inhibition at 150 g/ha: read-out: Growth inhibition rate (%) Observed, 1.5 g/a
How it was run: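 Barnyardgrass (Echinochloa oryzicola vasing) seeds were sown in paddy field soil in 1/10,000 are pots and kept irrigated at a water depth of 3.5 cm. Wettable powders of the active ingredients were diluted with water and applied under submerged conditions at the prescribed amounts. Growth was visually scored from 0% (as untreated) to 100% (complete kill), and expected values were calculated with Colby's formula.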

[2] = system: Japanese bulrush (Scirpus juncoides); assay: Growth inhibition of Japanese bulrush in paddy soil pots, application under submerged condition, visual rating and Colby expected value; format: in vivo
How it was run: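 Scirpus juncoides was sown in paddy soil pots flooded to 3.5 cm and treated under submerged conditions at the 2–3 leaf stage with water-diluted formulations, alone or in combination. Growth inhibition was rated visually 10 or 19 days after application (0% untreated to 100% complete kill). Expected combination values come from Colby's formula.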

[3] = 2.0 to 2.5 leaf stage, 21 days after application
[4] = 2.8 to 3.2 leaf stage, 21 days after application, Test Examples 39-43
[5] = Schoenoplectiella juncoides, soil, 696 h, read-out: Growth inhibition rate (%) Observed

CCCOCCN(C(=O)CCl)c1c(CC)cccc1CC [Compound (B3.1), pretilachlor]
inhibition at 100 g/ha [1, 3]: 17% | inhibition at 100 g/ha [1, 4]: 0% | inhibition at 200 g/ha [1, 3]: 33% | inhibition at 200 g/ha [1, 4]: 0% | inhibition at 50 g/ha ([2]; Schoenoplectiella juncoides, soil, 240 h, 0.5 g/a, 2.3 to 2.6 leaf stage, 10 days after application, read-out: Growth inhibition rate (%) Observed): 3% | inhibition at 100 g/ha ([2]; Schoenoplectiella juncoides, soil, 240 h, 1 g/a, 2.3 to 2.6 leaf stage, 10 days after application, read-out: Growth inhibition rate (%) Observed): 10%

CCS(=O)(=O)Oc1ccc2c(c1)C(C)(C)CO2 [Compound (B8.1), benfuresate]
inhibition at 150 g/ha [1, 3]: 10% | inhibition at 150 g/ha ([1]; 3.0 to 3.3 leaf stage, 21 days after application): 0% | inhibition at 300 g/ha ([1]; read-out: Growth inhibition rate (%) Observed, 3 g/a, 2.0 to 2.5 leaf stage, 21 days after application): 33% | inhibition at 300 g/ha ([1]; read-out: Growth inhibition rate (%) Observed, 3.0 g/a, 3.0 to 3.3 leaf stage, 21 days after application): 0% | inhibition at 600 g/ha [2, 5]: 90% | inhibition at 900 g/ha [2, 5]: 89% | inhibition at 1200 g/ha [2, 5]: 89%

COCC(=O)OC(c1ncccc1S(=O)(=O)NC(=O)Nc1nc(OC)cc(OC)n1)C(C)F (stereo not drawn) [Compound A2, flucetosulfuron]
Growth inhibition rate (%) Observed ([1]; 0.055 g/a, 2.8 to 3.2 leaf stage, 21 days after application): 55% | Growth inhibition rate (%) Observed ([1]; 0.083 g/a, 2.1 to 3.2 leaf stage, 21 days after application): 90% | Growth inhibition rate (%) Observed ([1]; 0.083 g/a, 2.1 to 3.2 leaf stage, 22 days after application): 90% | Growth inhibition rate (%) Observed ([1]; 0.083 g/a, 2.5 to 3.0 leaf stage, 22 days after application): 67% | Growth inhibition rate (%) Observed ([1]; 0.083 g/a, 2.8 to 3.2 leaf stage, 19 days after application, Test Examples 62-65): 55% | Growth inhibition rate (%) Observed ([1]; 0.083 g/a, 2.8 to 3.2 leaf stage, 21 days after application): 65% | Growth inhibition rate (%) Observed ([1]; 0.083 g/a, 2.8 to 3.2 leaf stage, 21 days after application, Test Examples 39-43): 55% | Growth inhibition rate (%) Observed ([1]; 0.11 g/a, 2.0 to 2.5 leaf stage, 21 days after application): 90% | Growth inhibition rate (%) Observed ([1]; 0.11 g/a, 2.1 to 3.2 leaf stage, 21 days after application): 92% | Growth inhibition rate (%) Observed ([1]; 0.11 g/a, 2.1 to 3.2 leaf stage, 22 days after application): 92% | Growth inhibition rate (%) Observed ([1]; 0.11 g/a, 2.4 to 3.2 leaf stage, 29 days after application, Test Example 45): 96% | Growth inhibition rate (%) Observed ([1]; 0.11 g/a, 2.5 to 3.0 leaf stage, 22 days after application): 83% | Growth inhibition rate (%) Observed ([1]; 0.11 g/a, 2.8 to 3.2 leaf stage, 19 days after application, Test Examples 62-65): 68% | Growth inhibition rate (%) Observed ([1]; 0.11 g/a, 2.8 to 3.2 leaf stage, 21 days after application): 75% | Growth inhibition rate (%) Observed ([1]; 0.11 g/a, 2.8 to 3.2 leaf stage, 21 days after application, Test Examples 39-43): 70% | Growth inhibition rate (%) Observed ([1]; 0.165 g/a, 2.0 to 2.5 leaf stage, 21 days after application): 90% | Growth inhibition rate (%) Observed ([1]; 0.165 g/a, 2.1 to 3.2 leaf stage, 21 days after application): 96% | Growth inhibition rate (%) Observed ([1]; 0.165 g/a, 2.1 to 3.2 leaf stage, 22 days after application): 96% | Growth inhibition rate (%) Observed ([1]; 0.165 g/a, 2.5 to 3.0 leaf stage, 22 days after application): 89% | Growth inhibition rate (%) Observed ([1]; 0.165 g/a, 2.8 to 3.2 leaf stage, 19 days after application, Test Examples 62-65): 73% | Growth inhibition rate (%) Observed ([1]; 8.3 g/ha, 3 leaf stage, 22 days after application, Test Example 36): 67% | Growth inhibition rate (%) Observed ([1]; 8.3 g/ha, 3 leaf stage, 22 days after application, Test Example 38): 83% | Growth inhibition rate (%) Observed ([1]; 11 g/ha, 3 leaf stage, 22 days after application, Test Example 36): 83% | Growth inhibition rate (%) Observed ([1]; 11 g/ha, 3 leaf stage, 22 days after application, Test Example 38): 96% | Growth inhibition rate (%) Observed ([1]; 16.5 g/ha, 3 leaf stage, 22 days after application, Test Example 36): 89% | Growth inhibition rate (%) Observed ([1]; 16.5 g/ha, 3 leaf stage, 22 days after application, Test Example 38): 98% | Growth inhibition rate (%) Observed ([2]; 0.025 g/a, 2 leaf stage, 19 days after application, Test Example 33): 43% | Growth inhibition rate (%) Observed ([2]; 0.025 g/a, 2.3 to 2.6 leaf stage, 10 days after application): 27% | Growth inhibition rate (%) Observed ([2]; 0.05 g/a, 2 leaf stage, 19 days after application, Test Example 33): 70% | Growth inhibition rate (%) Observed ([2]; 0.05 g/a, 2.3 to 2.6 leaf stage, 10 days after application): 40% | Growth inhibition rate (%) Observed ([2]; 0.075 g/a, 2.6 to 3.1 leaf stage, 22 days after application, Test Examples 50, 58): 94% | Growth inhibition rate (%) Observed ([2]; 0.1 g/a, 2.3 to 2.6 leaf stage, 10 days after application): 63% | Growth inhibition rate (%) Observed ([2]; 0.125 g/a, 2 leaf stage, 19 days after application, Test Example 34): 50% | Growth inhibition rate (%) Observed ([2]; 0.15 g/a, 2.6 to 3.1 leaf stage, 22 days after application, Test Examples 50, 58): 93% | Growth inhibition rate (%) Observed ([2]; 0.167 g/a, 2 leaf stage, 19 days after application, Test Example 34): 79% | Growth inhibition rate (%) Observed ([2]; 0.22 g/a, 2.2 to 2.8 leaf stage, 29 days after application, Test Example 44): 87% | Growth inhibition rate (%) Observed ([2]; 1.5 g/a, 2 leaf stage, 19 days after application, Test Example 34): 87% | Growth inhibition rate (%) Observed ([2]; 8.3 g/ha, 3 leaf stage, 19 days after application, Test Example 37): 70%
